From patent US10407409B2, “6-(5-hydroxy-1H-pyrazol-1-yl)nicotinamide inhibitors of PHD” (Takeda Pharmaceutical Company Limited, priority 2013, dated 2019) come the findings set out here.

Assay [1] deals with HIF1a protein in H9c2 rat cardiomyocytes. As to the kind of experiment: Cell-based HIF-alpha stabilization assay (inhibition of PHD in cells). As to conditions: 24 hrs compound incubation, HIF1a protein by ELISA; for EC50: Rattus norvegicus, H9c2, 24 h, read-out: Inhibition of PHD in cells (pEC50) (converted). The method, boiled down:
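Rat H9c2 cardiomyocytes, cultured 24 h, were treated 24 h with an 11-point serial dilution of compound. HIF1a in whole-cell lysates was quantified by ELISA as % of the maximal desferrioxamine response. EC50 came from curve fitting; EC50pos is the concentration reaching 50% of the desferrioxamine maximum.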
Background: ELISA stands for enzyme-linked immunosorbent assay.

For assay [2], the target named is PHD2 enzyme (residues 181-417) (Homo sapiens (Human), UniProt Q9GZT9). As to the kind of experiment: Inhibition of PHD enzyme (LC/MS peptide hydroxylation assay). In kind it is biochemical. The settings on record: PHD2 (residues 181-417) 5 nM, 60 min pre-incubation; -log(IC50), IC50 molar. In a few lines:
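PHD2 (5 nM final) preincubated with inhibitor 60 min at RT in 50 mM HEPES, 50 mM KCl, 0.5 mM TCEP, 2 uM FeCl2, 0.1 mg/ml BSA, pH 7.3. Reaction started with biotin-peptide (1 uM), 2-oxoglutarate (2 uM), ascorbate (1 mM), quenched at 60 min; hydroxylated product by LC/MS, reported as pIC50.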

PHD2 enzyme (residues 181-417), sequence (Q9GZT9 181-417): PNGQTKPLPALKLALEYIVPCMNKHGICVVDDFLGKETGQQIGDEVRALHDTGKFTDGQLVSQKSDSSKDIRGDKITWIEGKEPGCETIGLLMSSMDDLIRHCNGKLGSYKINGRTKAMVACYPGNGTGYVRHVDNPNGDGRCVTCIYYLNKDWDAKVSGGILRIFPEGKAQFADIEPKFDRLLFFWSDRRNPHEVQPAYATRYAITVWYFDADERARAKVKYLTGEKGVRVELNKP

Turning to `COc1cc(-c2cnn(-c3ccc(C(=O)NCCC4CCCN4C)cn3)c2O)ccn1` (centres unmarked) [Example 31, 6-(5-hydroxy-4-(2-methoxypyridin-4-yl)-1H-pyrazol-1-yl)-N-(2-(1-methylpyrrolidin-2-yl)ethyl)nicotinamide], the “Inhibition of PHD in cells (pEC50)” value in assay [1] is reported as 6.00. In assay [2], the “PHD Inhibition (pIC50)” value was found to be 7.5.
For the compound `Cc1cc(C#N)ccc1-c1cnn(-c2ccc(C(=O)N3CCCC(N4CCCCC4)C3)cn2)c1O` (centres unmarked) [Example 314, 4-(1-(5-([1,3′-bipiperidine]-1′-carbonyl)pyridin-2-yl)-5-hydroxy-1H-pyrazol-4-yl)-3-methylbenzonitrile], the EC50 in assay [1] was 550 nM. In addition, the “PHD Inhibition (pIC50)” value in assay [2] is listed as 7.90.
In the case of `COCCCNC(=O)c1ccc(-n2ncc(-c3cc(C)c(C#N)cc3C)c2O)nc1` [Example 403, 6-(4-(4-cyano-2,5-dimethylphenyl)-5-hydroxy-1H-pyrazol-1-yl)-N-(3-methoxypropyl)nicotinamide], the EC50 in assay [1] is 1860 nM. Moreover, in assay [2], the “PHD Inhibition (pIC50)” value was 7.78.
The corresponding values for `COc1cc(-c2cnn(-c3ccc(C(=O)NCC4CN(C)CCO4)cn3)c2O)ccn1` (centres unmarked) [Example 46, 6-(5-hydroxy-4-(2-methoxypyridin-4-yl)-1H-pyrazol-1-yl)-N-((4-methylmorpholin-2-yl)methyl)nicotinamide] are 1350 nM and 7.8.
As for `COCCCCNC(=O)c1ccc(-n2ncc(-c3ccc(C#N)cc3F)c2O)nc1` [Example 285, 6-(4-(4-cyano-2-fluorophenyl)-5-hydroxy-1H-pyrazol-1-yl)-N-(4-methoxybutyl)nicotinamide], the EC50 in assay [1] is 933 nM. Also, in assay [2], the “PHD Inhibition (pIC50)” value worked out at 8.48.
For `Cc1cc(-c2cnn(-c3ccc(C(=O)NCC4CCOCC4)cn3)c2O)ccn1` [Example 223, 6-(5-hydroxy-4-(2-methylpyridin-4-yl)-1H-pyrazol-1-yl)-N-((tetrahydro-2H-pyran-4-yl)methyl)nicotinamide], the EC50 in assay [1] is 50100 nM. The “PHD Inhibition (pIC50)” value in assay [2] stood at 5.43.
On to `COCCCNC(=O)c1ccc(-n2ncc(-c3cc(F)c(C#N)cc3C)c2O)nc1` [Example 405, 6-(4-(4-cyano-5-fluoro-2-methylphenyl)-5-hydroxy-1H-pyrazol-1-yl)-N-(3-methoxypropyl)nicotinamide], for which the EC50 in assay [1] was 324 nM. The “PHD Inhibition (pIC50)” value in assay [2] amounted to 8.48.
As for `Cc1cc(C#N)ccc1-c1cnn(-c2ccc(C(=O)N3CC[C@@H]4CN(C)C[C@@H]4C3)cn2)c1O` [Example 417, 4-(5-hydroxy-1-(5-((3aR,7aS)-2-methyloctahydro-1H-pyrrolo[3,4-c]pyridine-5-carbonyl)pyridin-2-yl)-1H-pyrazol-4-yl)-3-methylbenzonitrile], the EC50 in assay [1] is 575 nM. Further, in assay [2], the “PHD Inhibition (pIC50)” value is 7.87.
As to `COCC1(NC(=O)c2ccc(-n3ncc(-c4ccc(C#N)cc4)c3O)nc2)CCCC1` [Example 149, 6-(4-(4-cyanophenyl)-5-hydroxy-1H-pyrazol-1-yl)-N-(1-(methoxymethyl)cyclopentyl)nicotinamide], the EC50 in assay [1] is 776 nM. The “PHD Inhibition (pIC50)” value in assay [2] stood at 7.28.
For `N#Cc1ccc(-c2cnn(-c3ccc(C(=O)N4CCOCC4)cn3)c2O)cc1` [Example 123, 4-(5-hydroxy-1-(5-(morpholine-4-carbonyl)pyridin-2-yl)-1H-pyrazol-4-yl)benzonitrile], the EC50 in assay [1] was 4790 nM. For the same compound, in assay [2], the “PHD Inhibition (pIC50)” value was found to be 7.16.
Take `N#Cc1ccc(-c2cnn(-c3ccc(C(=O)NCC4CCCO4)cn3)c2O)cc1` (centres unmarked) [Example 153, 6-(4-(4-cyanophenyl)-5-hydroxy-1H-pyrazol-1-yl)-N-((tetrahydrofuran-2-yl)methyl)nicotinamide]: the EC50 in assay [1] is 1380 nM. Besides, the “PHD Inhibition (pIC50)” value in assay [2] stood at 7.57.
As for `Cc1cc(C#N)ccc1-c1cnn(-c2ccc(C(=O)N3CCN(CC(F)(F)F)CC3)cn2)c1O` [Example 312, 4-(5-hydroxy-1-(5-(4-(2,2,2-trifluoroethyl)piperazine-1-carbonyl)pyridin-2-yl)-1H-pyrazol-4-yl)-3-methylbenzonitrile], in assay [1], the EC50 is 1820 nM. Besides, in assay [2], the “PHD Inhibition (pIC50)” value was found to be 8.50.
On the same counts, the results for `CO[C@H]1CC[C@@H](NC(=O)c2ccc(-n3ncc(-c4ccc(C#N)cc4)c3O)nc2)CC1` [Example 227, 6-(4-(4-cyanophenyl)-5-hydroxy-1H-pyrazol-1-yl)-N-((1s,4s)-4-methoxycyclohexyl)nicotinamide] are 550 nM and 7.38.
With `N#Cc1ccc(-c2cnn(-c3ccc(C(=O)NC4CCN(C5CC5)CC4)cn3)c2O)cc1` [Example 93, 6-(4-(4-cyanophenyl)-5-hydroxy-1H-pyrazol-1-yl)-N-(1-cyclopropylpiperidin-4-yl)nicotinamide], the EC50 in assay [1] was 871 nM. The “PHD Inhibition (pIC50)” value in assay [2] is 7.08.
Consider `N#Cc1ccc(-c2cnn(-c3ccc(C(=O)NCCC4CCCO4)cn3)c2O)cc1` (centres unmarked) [Example 241, 6-(4-(4-cyanophenyl)-5-hydroxy-1H-pyrazol-1-yl)-N-(2-(tetrahydrofuran-2-yl)ethyl)nicotinamide], for which the EC50 in assay [1] is 437 nM. In addition, the “PHD Inhibition (pIC50)” value in assay [2] worked out at 7.51.
Consider `N#Cc1ccc(-c2cnn(-c3ccc(C(=O)NCc4ccccc4)cn3)c2O)cc1` [Example 281, N-benzyl-6-(4-(4-cyanophenyl)-5-hydroxy-1H-pyrazol-1-yl)nicotinamide], for which the EC50 in assay [1] is 257 nM. Further, the “PHD Inhibition (pIC50)” value in assay [2] is 7.37.
On the same counts, the results for `N#Cc1ccc(-c2cnn(-c3ccc(C(=O)NCCC4CCOC4)cn3)c2O)cc1` (centres unmarked) [Example 177, 6-(4-(4-cyanophenyl)-5-hydroxy-1H-pyrazol-1-yl)-N-(2-(tetrahydrofuran-3-yl)ethyl)nicotinamide] are 309 nM and 7.64.
Turning to `Cc1cc(C#N)ccc1-c1cnn(-c2ccc(C(=O)N3CCC[C@@H](N(C)C)C3)cn2)c1O` [Example 315, (R)-4-(1-(5-(3-(dimethylamino)piperidine-1-carbonyl)pyridin-2-yl)-5-hydroxy-1H-pyrazol-4-yl)-3-methylbenzonitrile], the EC50 in assay [1] was 562 nM. Further, the “PHD Inhibition (pIC50)” value in assay [2] is on record as 8.09.
With `COCC1(NC(=O)c2ccc(-n3ncc(-c4ccnc(OC)c4)c3O)nc2)CC1` [Example 205, 6-(5-hydroxy-4-(2-methoxypyridin-4-yl)-1H-pyrazol-1-yl)-N-(1-(methoxymethyl)cyclopropyl)nicotinamide], the EC50 in assay [1] was 631 nM. In addition, the “PHD Inhibition (pIC50)” value in assay [2] was determined as 6.89.
On to `Cc1cc(C#N)ccc1-c1cnn(-c2ccc(C(=O)N3CC(N(C)C)C3)cn2)c1O` [Example 345, 4-(1-(5-(3-(dimethylamino)azetidine-1-carbonyl)pyridin-2-yl)-5-hydroxy-1H-pyrazol-4-yl)-3-methylbenzonitrile], for which the EC50 in assay [1] was 363 nM. Further, the “PHD Inhibition (pIC50)” value in assay [2] worked out at 8.35.
Take `CCC(C)NC(=O)c1ccc(-n2ncc(-c3ccc(C#N)cc3)c2O)nc1` (centres unmarked) [Example 80, N-(sec-butyl)-6-(4-(4-cyanophenyl)-5-hydroxy-1H-pyrazol-1-yl)nicotinamide]: the EC50 in assay [1] was 1070 nM. Also, the “PHD Inhibition (pIC50)” value in assay [2] worked out at 7.23.
Take `CO[C@H]1CC[C@H](NC(=O)c2ccc(-n3ncc(-c4ccc(C#N)cc4C)c3O)nc2)CC1` [Example 68, 6-(4-(4-cyano-2-methylphenyl)-5-hydroxy-1H-pyrazol-1-yl)-N-((1r,4r)-4-methoxycyclohexyl)nicotinamide]: the EC50 in assay [1] is 50.1 nM. Besides, in assay [2], the “PHD Inhibition (pIC50)” value came out at 7.44.
